Test system: redroot pigweed
Assay: Test Example 5: herbicidal effect by foliage application, plastic box (Table 20, symbol N)
Format: in vivo, redroot pigweed (Amaranthus retroflexus)
Conditions: amount of applied herbicide 320 g/ha; foliage application after 14-day growth; evaluated three weeks after application
How it was run: (§1)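 Plants sown in sterilized diluvial soil and grown 14 days in a greenhouse at 25° C to 30° C, then sprayed on the foliage with the compound's emulsion diluted in water to a predetermined herbicide amount. Injury to weeds and crops scored three weeks after application on a visual rating scale.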

Question: For `CCCC(=O)Oc1c(C)nn(C)c(=O)c1-c1c(-c2ccccc2OC)sc2cc(F)c(F)cc12` [5-012], which “Herbicidal effect by foliage application, N: redroot pigweed” value is on record?
Answer: 4 (Herbicidal rate of 70% or more and less than 90%)

Question: How did the “Herbicidal effect by foliage application, N: redroot pigweed” value turn out when `COc1ccc(-c2sc3cc(Cl)c(Cl)cc3c2-c2c(O)c(C)nn(C)c2=O)cc1` [5-043] was run?
Answer: 3 (Herbicidal rate of 40% or more and less than 70%)

Test system: persian speedwell
Assay: Test Example 5: herbicidal effect by foliage application, plastic box (Table 20, symbol R)
Format: in vivo, Persian speedwell (Veronica persica)
Conditions: amount of applied herbicide 320 g/ha; foliage application after 14-day growth; evaluated three weeks after application
How it was run: as §1

Question: Which “Herbicidal effect by foliage application, R: persian speedwell” value does the source give for `CCCC(=O)Oc1c(C)nn(C)c(=O)c1-c1c(-c2ccccc2OC)sc2cc(F)c(F)cc12` [5-012] here?
Answer: 3 (Herbicidal rate of 40% or more and less than 70%)

Question: How did the “Herbicidal effect by foliage application, R: persian speedwell” value turn out when `COc1ccc(-c2sc3cc(Cl)c(Cl)cc3c2-c2c(O)c(C)nn(C)c2=O)cc1` [5-043] was run?
Answer: 5 (Herbicidal rate of 90% or more (almost completely withered))

Test system: Japanese bulrush
Assay: Test Example 1: herbicidal activity, application before weed generation under submerged conditions (Table 16, symbol B)
Format: in vivo, Japanese bulrush (Schoenoplectus juncoides)
Conditions: amount of applied herbicide 320 g/ha
How it was run: (§2)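 Submerged Wagner pots (alluvial soil, 4 cm water) sown with weed seeds and planted with 2.5-leaf rice seedlings; emulsifiable concentrate diluted in water applied to water surface on sowing day. Held in greenhouse at 25-30 °C; injury scored 0-5 by herbicidal rate after three weeks.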

Question: `CCCC(=O)Oc1c(C)nn(C)c(=O)c1-c1c(-c2ccccc2OC)sc2cc(F)c(F)cc12` [5-012] was tested. Which “Herbicidal effect, B: Japanese bulrush” value did it give?
Answer: 3 (Herbicidal rate of 40% or more and less than 70%)

Question: For `COc1ccc(-c2sc3cc(Cl)c(Cl)cc3c2-c2c(O)c(C)nn(C)c2=O)cc1` [5-043], which “Herbicidal effect, B: Japanese bulrush” value is on record?
Answer: 2 (Herbicidal rate of 20% or more and less than 40%)

Test system: lambsquarters
Assay: Test Example 5: herbicidal effect by foliage application, plastic box (Table 20, symbol O)
Format: in vivo, lambsquarters (Chenopodium album)
Conditions: amount of applied herbicide 320 g/ha; foliage application after 14-day growth; evaluated three weeks after application
How it was run: as §1

Question: Which “Herbicidal effect by foliage application, O: lambsquarters” value does the source give for `CCCC(=O)Oc1c(C)nn(C)c(=O)c1-c1c(-c2ccccc2OC)sc2cc(F)c(F)cc12` [5-012] here?
Answer: 3 (Herbicidal rate of 40% or more and less than 70%)

Question: Which “Herbicidal effect by foliage application, O: lambsquarters” value does the source give for `COc1ccc(-c2sc3cc(Cl)c(Cl)cc3c2-c2c(O)c(C)nn(C)c2=O)cc1` [5-043] here?
Answer: 3 (Herbicidal rate of 40% or more and less than 70%)

Test system: windgrass
Assay: Test Example 5: herbicidal effect by foliage application, plastic box (Table 20, symbol L)
Format: in vivo, windgrass (Apera spica-venti)
Conditions: amount of applied herbicide 320 g/ha; foliage application after 14-day growth; evaluated three weeks after application
How it was run: as §1

Question: `CCCC(=O)Oc1c(C)nn(C)c(=O)c1-c1c(-c2ccccc2OC)sc2cc(F)c(F)cc12` [5-012] was tested. Which “Herbicidal effect by foliage application, L: windgrass” value did it give?
Answer: 1 (Herbicidal rate of 5% or more and less than 20%)

Question: Which “Herbicidal effect by foliage application, L: windgrass” value does the source give for `COc1ccc(-c2sc3cc(Cl)c(Cl)cc3c2-c2c(O)c(C)nn(C)c2=O)cc1` [5-043] here?
Answer: 0 (Herbicidal rate of 5% or less (almost no effect))

Test system: southern crabgrass
Assay: Test Example 4: herbicidal effect by soil treatment (Table 19, symbol F)
Format: in vivo, southern crabgrass (Digitaria ciliaris)
Conditions: amount of applied herbicide 320 g/ha
How it was run: (§3)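 Seeds were sown in sterilized diluvial soil and covered with about 1.5 cm of soil. An emulsion formulation diluted with water to a predetermined herbicide amount was sprayed evenly onto the soil surface. Plants grew in a greenhouse at 25° C. to 30° C., and the effect was scored three weeks after application using criteria from an earlier test.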

Question: `CCCC(=O)Oc1c(C)nn(C)c(=O)c1-c1c(-c2ccccc2OC)sc2cc(F)c(F)cc12` [5-012] was tested. Which “F: southern crabgrass, herbicidal effect grade” value did it give?
Answer: 3 (Herbicidal rate of 40% or more and less than 70%)

Question: How did the “F: southern crabgrass, herbicidal effect grade” value turn out when `COc1ccc(-c2sc3cc(Cl)c(Cl)cc3c2-c2c(O)c(C)nn(C)c2=O)cc1` [5-043] was run?
Answer: 0 (Herbicidal rate of 5% or less (almost no effect))

Test system: oval-leafed pondweed
Assay: Test Example 2: herbicidal activity, application during weed generation under submerged conditions (Table 17, symbol C)
Format: in vivo, oval-leafed pondweed (Monochoria vaginalis)
Conditions: AAH 320 g/ha; application during weed generation, submerged conditions
How it was run: (§4)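 Alluvial soil in Wagner pots was flooded to 4 cm depth and sown with the three weeds together; pots were kept in a greenhouse at 25° C. to 30° C. At the one to two leaf stage, an emulsion formulation diluted in water to a set rate went onto the water surface; scored three weeks later.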

Question: For `CCCC(=O)Oc1c(C)nn(C)c(=O)c1-c1c(-c2ccccc2OC)sc2cc(F)c(F)cc12` [5-012], which “herbicidal effect rating, C: oval-leafed pondweed” value is on record?
Answer: 2 (Herbicidal rate of 20% or more and less than 40%)

Question: How did the “herbicidal effect rating, C: oval-leafed pondweed” value turn out when `COc1ccc(-c2sc3cc(Cl)c(Cl)cc3c2-c2c(O)c(C)nn(C)c2=O)cc1` [5-043] was run?
Answer: 0 (Herbicidal rate of 5% or less (almost no effect))

Test system: blackgrass
Assay: Test Example 4: herbicidal effect by soil treatment (Table 19, symbol J)
Format: in vivo, blackgrass (Alopecurus myosuroides)
Conditions: amount of applied herbicide 320 g/ha
How it was run: as §3

Question: `CCCC(=O)Oc1c(C)nn(C)c(=O)c1-c1c(-c2ccccc2OC)sc2cc(F)c(F)cc12` [5-012] was tested. Which “J: blackgrass, herbicidal effect grade” value did it give?
Answer: 3 (Herbicidal rate of 40% or more and less than 70%)

Question: Which “J: blackgrass, herbicidal effect grade” value does the source give for `COc1ccc(-c2sc3cc(Cl)c(Cl)cc3c2-c2c(O)c(C)nn(C)c2=O)cc1` [5-043] here?
Answer: 0 (Herbicidal rate of 5% or less (almost no effect))

Test system: southern crabgrass
Assay: Test Example 5: herbicidal effect by foliage application, plastic box (Table 20, symbol F)
Format: in vivo, southern crabgrass (Digitaria ciliaris)
Conditions: amount of applied herbicide 320 g/ha; foliage application after 14-day growth; evaluated three weeks after application
How it was run: as §1

Question: How did the “Herbicidal effect by foliage application, F: southern crabgrass” value turn out when `CCCC(=O)Oc1c(C)nn(C)c(=O)c1-c1c(-c2ccccc2OC)sc2cc(F)c(F)cc12` [5-012] was run?
Answer: 0 (Herbicidal rate of 5% or less (almost no effect))

Question: Which “Herbicidal effect by foliage application, F: southern crabgrass” value does the source give for `COc1ccc(-c2sc3cc(Cl)c(Cl)cc3c2-c2c(O)c(C)nn(C)c2=O)cc1` [5-043] here?
Answer: 0 (Herbicidal rate of 5% or less (almost no effect))

Test system: barnyard grass
Assay: Test Example 4: herbicidal effect by soil treatment (Table 19, symbol H)
Format: in vivo, barnyard grass (Echinochloa crus-galli)
Conditions: amount of applied herbicide 320 g/ha
How it was run: as §3

Question: How did the “H: barnyard grass, herbicidal effect grade” value turn out when `CCCC(=O)Oc1c(C)nn(C)c(=O)c1-c1c(-c2ccccc2OC)sc2cc(F)c(F)cc12` [5-012] was run?
Answer: 1 (Herbicidal rate of 5% or more and less than 20%)

Question: Which “H: barnyard grass, herbicidal effect grade” value does the source give for `COc1ccc(-c2sc3cc(Cl)c(Cl)cc3c2-c2c(O)c(C)nn(C)c2=O)cc1` [5-043] here?
Answer: 0 (Herbicidal rate of 5% or less (almost no effect))

Test system: barnyard grass
Assay: Test Example 3: herbicidal effect by foliage application, Wagner pot (Table 18, symbol H)
Format: in vivo, barnyard grass (Echinochloa crus-galli)
Conditions: 320 g/ha
How it was run: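 Plants were sown in alluvial soil held under 0.1–0.5 cm standing water and grown 14 days in a greenhouse at 25–30 °C. An emulsifiable formulation, water-diluted to the set dose, was then sprayed onto the foliage, and effects were scored three weeks later using previously defined criteria.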

Question: How did the “herbicidal effect on barnyard grass (H)” value turn out when `CCCC(=O)Oc1c(C)nn(C)c(=O)c1-c1c(-c2ccccc2OC)sc2cc(F)c(F)cc12` [5-012] was run?
Answer: 4 (Herbicidal rate of 70% or more and less than 90%)

Question: `COc1ccc(-c2sc3cc(Cl)c(Cl)cc3c2-c2c(O)c(C)nn(C)c2=O)cc1` [5-043] was tested. Which “herbicidal effect on barnyard grass (H)” value did it give?
Answer: 3 (Herbicidal rate of 40% or more and less than 70%)

Test system: late watergrass
Assay: Test Example 2: herbicidal activity, application during weed generation under submerged conditions (Table 17, symbol A)
Format: in vivo, late watergrass (Echinochloa oryzicola)
Conditions: AAH 320 g/ha; application during weed generation, submerged conditions
How it was run: as §4

Question: Which “herbicidal effect rating, A: late watergrass” value does the source give for `CCCC(=O)Oc1c(C)nn(C)c(=O)c1-c1c(-c2ccccc2OC)sc2cc(F)c(F)cc12` [5-012] here?
Answer: 0 (Herbicidal rate of 5% or less (almost no effect))

Question: How did the “herbicidal effect rating, A: late watergrass” value turn out when `COc1ccc(-c2sc3cc(Cl)c(Cl)cc3c2-c2c(O)c(C)nn(C)c2=O)cc1` [5-043] was run?
Answer: 2 (Herbicidal rate of 20% or more and less than 40%)

Test system: chickweed
Assay: Test Example 4: herbicidal effect by soil treatment (Table 19, symbol P)
Format: in vivo, common chickweed (Stellaria media)
Conditions: amount of applied herbicide 320 g/ha
How it was run: as §3

Question: How did the “P: chickweed, herbicidal effect grade” value turn out when `CCCC(=O)Oc1c(C)nn(C)c(=O)c1-c1c(-c2ccccc2OC)sc2cc(F)c(F)cc12` [5-012] was run?
Answer: 3 (Herbicidal rate of 40% or more and less than 70%)

Question: Which “P: chickweed, herbicidal effect grade” value does the source give for `COc1ccc(-c2sc3cc(Cl)c(Cl)cc3c2-c2c(O)c(C)nn(C)c2=O)cc1` [5-043] here?
Answer: 3 (Herbicidal rate of 40% or more and less than 70%)

Test system: late watergrass
Assay: Test Example 1: herbicidal activity, application before weed generation under submerged conditions (Table 16, symbol A)
Format: in vivo, late watergrass (Echinochloa oryzicola)
Conditions: amount of applied herbicide 320 g/ha
How it was run: as §2

Question: How did the “Herbicidal effect, A: late watergrass” value turn out when `CCCC(=O)Oc1c(C)nn(C)c(=O)c1-c1c(-c2ccccc2OC)sc2cc(F)c(F)cc12` [5-012] was run?
Answer: 4 (Herbicidal rate of 70% or more and less than 90%)

Question: `COc1ccc(-c2sc3cc(Cl)c(Cl)cc3c2-c2c(O)c(C)nn(C)c2=O)cc1` [5-043] was tested. Which “Herbicidal effect, A: late watergrass” value did it give?
Answer: 5 (Herbicidal rate of 90% or more (almost completely withered))

Test system: wild oat
Assay: Test Example 5: herbicidal effect by foliage application, plastic box (Table 20, symbol I)
Format: in vivo, wild oat (Avena fatua)
Conditions: amount of applied herbicide 320 g/ha; foliage application after 14-day growth; evaluated three weeks after application
How it was run: as §1

Question: How did the “Herbicidal effect by foliage application, I: wild oat” value turn out when `CCCC(=O)Oc1c(C)nn(C)c(=O)c1-c1c(-c2ccccc2OC)sc2cc(F)c(F)cc12` [5-012] was run?
Answer: 2 (Herbicidal rate of 20% or more and less than 40%)

Question: `COc1ccc(-c2sc3cc(Cl)c(Cl)cc3c2-c2c(O)c(C)nn(C)c2=O)cc1` [5-043] was tested. Which “Herbicidal effect by foliage application, I: wild oat” value did it give?
Answer: 0 (Herbicidal rate of 5% or less (almost no effect))

Test system: green foxtail
Assay: Test Example 5: herbicidal effect by foliage application, plastic box (Table 20, symbol G)
Format: in vivo, green foxtail (Setaria viridis)
Conditions: amount of applied herbicide 320 g/ha; foliage application after 14-day growth; evaluated three weeks after application
How it was run: as §1

Question: How did the “Herbicidal effect by foliage application, G: green foxtail” value turn out when `CCCC(=O)Oc1c(C)nn(C)c(=O)c1-c1c(-c2ccccc2OC)sc2cc(F)c(F)cc12` [5-012] was run?
Answer: 1 (Herbicidal rate of 5% or more and less than 20%)

Question: With `COc1ccc(-c2sc3cc(Cl)c(Cl)cc3c2-c2c(O)c(C)nn(C)c2=O)cc1` [5-043] as the compound, how does the “Herbicidal effect by foliage application, G: green foxtail” value read?
Answer: 0 (Herbicidal rate of 5% or less (almost no effect))
